The text below walks through data of EP0930314A1, “p-TOLUENESULFONATE HYDRATE OF THIAZOLINE COMPOUND” (TAISHO PHARMACEUTICAL CO. LTD, priority 1996, dated 1998).

The target of data set [1] is T1, Purified GPIIb/IIIa receptor (Homo sapiens, UniProt P05106+P08514).
T1 construct: from tissue; the cited Pytela method purifies the receptor from platelet extracts (own knowledge)
Nature of the data set: Fibrinogen receptor (GPIIb/IIIa) binding inhibition test (solid-phase, ELISA detection of bound fibrinogen). The settings on record: inhibition of fibrinogen (2 µg/ml) binding to solid phased purified GPIIb/IIIa, 4°C, 16 hours. As for the experimental part: Purified GPIIb/IIIa was prepared by referring to the methods of Pytela et al (Science, 231 (1986) 1559) and a binding measurement system of solid phased GPIIb/IIIa was carried out by referring to the method of Kouns et al (Blood, 80 (1992) 2539).
Purified GPIIb/IIIa receptor was solidified on 96-well microtiter plates by reacting in a solution (pH 7.4) containing 20 mM Tris-hydrochloric acid, 150 mM sodium chloride, 1 mM calcium chloride, 1 mM magnesium chloride and 0.0005 % Triton X-100 at 4°C for 16 hours. The solid phase was then washed once with a solution (pH 7.4) containing 20 mM Tris-hydrochloric acid, 150 mM sodium chloride, 1 mM calcium chloride, 1 mM magnesium chloride and 0.05 % Tween 20 (Buffer B), and blocked by a solution (pH 7.4) containing 20 mM Tris-hydrochloric acid, 150 mM sodium chloride, 1 mM calcium chloride, 1 mM magnesium chloride and 25 % Block Ace in an amount of 150 µL/well at room temperature for 2 hours. […] The amount of the fibrinogen bound to the plates was measured by an enzyme-linked immunosorbent assay method using antifibrinogen primary antibody and peroxidase-labelled secondary antibody to calculate IC50 value. […]

Data set [2] relates to Blood platelet aggregation. Put plainly: Human in vitro blood platelet aggregation inhibition test (ADP-induced, PRP). As to conditions: ADP final concentration 7 µM, concentration to inhibit the maximum aggregation by 50 %. It counts as cell-based. As for the experimental part:
Citrated blood (the volume ratio of 3.13 % sodium citrate solution to blood is 1:9) was collected from the cubital vein of a healthy human who had not been received any drugs known to affect the function of blood platelet within 2 weeks prior to starting the test. The blood was centrifuged at 120 x g at room temperature for 15 minutes to give platelet rich plasma (PRP) as a supernatant, and further centrifuged at 1500 x g for 10 minutes to give platelet poor plasma (PPP) as a supernatant.
The blood platelet counts of PRP were adjusted to 50 ― 60 x 10^4/µL by diluting with PPP.
Blood platelet aggregation was monitored according to the method of Born G.V.R., [Nature, vol. 194, page 927 (1962)] using adenosine diphosphate (produced by Sigma Co.; hereinafter referred to as "ADP") as an aggregation-inducing substance. That is, a solution of Compound 1 or dihydrate of the compound of Formula (1) as a test drug in dimethyl sulfoxide was adjusted to the desired concentration with a physiological saline solution. […] The mixture was monitored for 5 minutes by using a blood platelet aggregation ability measurement apparatus (Aggricoda TM · PA-3210; made by Kyoto Daiichi Kagaku Co.) and the concentration of the test drug to inhibit the maximum aggregation by 50 % was calculated.

A short description of data set [3]: Hygroscopicity test (change rate of weight after storage at defined relative humidity). The settings on record: statement in words; test at 25°C, storage for 30 days, numeric data only in Fig 1. It counts as physicochemical. As for the experimental part: Compound 1 obtained in the above example and dihydrate of the compound of Formula (1) were used as test drugs. About 100 mg of the test drug was taken into a weighing bottle and weighed accurately. The weighed test drug in the weighing bottle was stored at 25°C in a decicator which was adjusted to the defined relative humidity by using a desired saturated salt solution or a thermo-hygrostat (Tabaiestec SH-220) which was adjusted to the proper relative humidity.
After storage for 30 days, the test drug was weighed, and the change rate of weight was calculated to use as an index of hygroscopicity.

T1 sequence (P08514 32-887 limits assumed): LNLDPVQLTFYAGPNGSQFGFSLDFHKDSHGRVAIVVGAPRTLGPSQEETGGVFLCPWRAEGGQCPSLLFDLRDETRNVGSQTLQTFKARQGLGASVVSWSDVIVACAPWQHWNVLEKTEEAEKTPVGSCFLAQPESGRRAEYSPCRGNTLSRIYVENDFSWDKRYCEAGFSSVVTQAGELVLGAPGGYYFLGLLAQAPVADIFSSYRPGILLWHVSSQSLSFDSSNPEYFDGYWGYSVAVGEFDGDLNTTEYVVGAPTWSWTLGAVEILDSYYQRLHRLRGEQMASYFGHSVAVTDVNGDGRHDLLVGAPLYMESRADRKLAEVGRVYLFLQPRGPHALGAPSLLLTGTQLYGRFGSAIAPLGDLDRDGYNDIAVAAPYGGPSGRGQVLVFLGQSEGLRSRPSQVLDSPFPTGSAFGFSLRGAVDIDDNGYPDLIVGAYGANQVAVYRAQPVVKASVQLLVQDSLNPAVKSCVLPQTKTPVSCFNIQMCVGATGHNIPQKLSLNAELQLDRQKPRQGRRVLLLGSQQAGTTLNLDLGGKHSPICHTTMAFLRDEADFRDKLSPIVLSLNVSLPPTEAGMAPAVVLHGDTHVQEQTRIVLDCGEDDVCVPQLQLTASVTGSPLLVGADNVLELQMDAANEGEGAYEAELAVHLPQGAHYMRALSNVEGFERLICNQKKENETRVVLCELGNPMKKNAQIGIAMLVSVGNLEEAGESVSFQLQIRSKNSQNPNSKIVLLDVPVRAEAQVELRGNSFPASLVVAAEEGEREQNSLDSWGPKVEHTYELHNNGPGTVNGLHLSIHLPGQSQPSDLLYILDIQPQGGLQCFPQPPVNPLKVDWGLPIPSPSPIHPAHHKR
T1 sequence (P08514 891-1039 limits assumed): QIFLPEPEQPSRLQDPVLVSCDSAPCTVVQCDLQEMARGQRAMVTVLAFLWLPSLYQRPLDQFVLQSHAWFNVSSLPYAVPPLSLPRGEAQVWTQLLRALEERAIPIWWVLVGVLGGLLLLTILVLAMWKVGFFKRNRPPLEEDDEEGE
T1 sequence (P05106 27-788): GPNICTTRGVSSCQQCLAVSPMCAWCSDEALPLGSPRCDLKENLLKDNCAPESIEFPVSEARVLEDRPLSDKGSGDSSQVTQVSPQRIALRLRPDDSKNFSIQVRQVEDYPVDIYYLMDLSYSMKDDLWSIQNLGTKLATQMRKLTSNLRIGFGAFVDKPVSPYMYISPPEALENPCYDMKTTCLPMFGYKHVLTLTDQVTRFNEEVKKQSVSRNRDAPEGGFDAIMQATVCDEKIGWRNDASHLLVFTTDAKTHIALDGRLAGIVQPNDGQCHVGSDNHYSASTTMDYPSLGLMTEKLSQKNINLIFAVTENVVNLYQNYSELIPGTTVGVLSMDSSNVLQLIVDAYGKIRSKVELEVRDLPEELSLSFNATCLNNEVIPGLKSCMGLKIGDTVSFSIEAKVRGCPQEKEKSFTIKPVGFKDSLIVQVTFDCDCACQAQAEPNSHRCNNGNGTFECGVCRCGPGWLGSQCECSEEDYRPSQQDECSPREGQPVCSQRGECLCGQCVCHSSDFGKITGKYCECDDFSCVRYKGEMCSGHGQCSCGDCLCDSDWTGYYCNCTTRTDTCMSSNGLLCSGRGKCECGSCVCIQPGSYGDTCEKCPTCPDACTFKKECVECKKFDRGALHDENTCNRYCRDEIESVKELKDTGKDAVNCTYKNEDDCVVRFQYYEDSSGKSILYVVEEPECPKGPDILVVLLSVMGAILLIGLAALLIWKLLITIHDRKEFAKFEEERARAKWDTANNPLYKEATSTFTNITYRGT

In the case of `Cc1c(C(=O)NCCC(=O)O)sc(=NC(=O)c2ccc(C(=N)N3CCC4(CC3)OCCO4)cc2)n1C` [Compound 1, N-(2-carboxyethyl)-2-{4-[(4,4-ethylenedioxy)piperidin-1-yl]imidoylbenzoylimino}-3,4-dimethyl-3H-thiazoline-5-carboxamide p-toluenesulfonate dihydrate], the half-inhibitory concentration (IC50) (commonly the concentration needed to halve the response being measured) in data set [1] amounted to 0.0805 nM; in data set [2] (Homo sapiens, Platelet), 22.1 nM. Further, the hygroscopicity result in data set [3] is recorded as “non-hygroscopic”.

The molecule `Cc1c(C(=O)NCCC(=O)O)sc(=NC(=O)c2ccc(C(=N)N3CCC4(CC3)OCCO4)cc2)n1C` [Dihydrate of the compound of Formula (1), reference compound] showed an IC50 in data set [2] of 21.1 nM.
